What was measured:
[1] = molecular target: Kappa-type opioid receptor (Homo sapiens, UniProt P41145)
Mu-type opioid receptor = Mu-type opioid receptor (Rattus norvegicus, UniProt P33535)
Sequence of Mu-type opioid receptor (P33535 whole entry): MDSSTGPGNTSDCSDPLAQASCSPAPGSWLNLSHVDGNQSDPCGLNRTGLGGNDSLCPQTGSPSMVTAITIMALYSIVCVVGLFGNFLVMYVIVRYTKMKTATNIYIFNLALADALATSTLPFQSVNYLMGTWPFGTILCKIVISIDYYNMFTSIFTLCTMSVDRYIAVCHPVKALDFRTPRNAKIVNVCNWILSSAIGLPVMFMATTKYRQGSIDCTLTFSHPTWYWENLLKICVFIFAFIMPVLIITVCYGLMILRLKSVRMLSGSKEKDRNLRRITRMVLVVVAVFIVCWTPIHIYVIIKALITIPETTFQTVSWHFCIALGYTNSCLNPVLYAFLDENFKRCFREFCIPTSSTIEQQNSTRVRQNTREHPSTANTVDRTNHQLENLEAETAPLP

Sequence of Kappa-type opioid receptor (P41145 whole entry): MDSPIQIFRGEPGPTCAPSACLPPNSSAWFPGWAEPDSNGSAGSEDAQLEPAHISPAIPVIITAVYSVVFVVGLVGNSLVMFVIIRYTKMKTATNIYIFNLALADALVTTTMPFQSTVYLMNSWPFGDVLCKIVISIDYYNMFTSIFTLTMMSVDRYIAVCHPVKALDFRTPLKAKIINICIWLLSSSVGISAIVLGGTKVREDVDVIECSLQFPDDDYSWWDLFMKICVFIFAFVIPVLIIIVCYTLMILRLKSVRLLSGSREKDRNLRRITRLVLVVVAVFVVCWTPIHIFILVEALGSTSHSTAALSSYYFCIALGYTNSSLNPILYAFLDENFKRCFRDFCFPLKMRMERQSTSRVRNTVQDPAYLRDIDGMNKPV

SMILES: COC(=O)C12CN(C)CC(C(=O)OC)(C1=O)C(c1cccc(F)c1)N(C)C2c1cccc(F)c1 (configuration not stated)
- Ki [1]: 248 nM

SMILES: CN(C(=O)C=Cc1ccoc1)C1CCC2(O)C3Cc4ccc(O)c5c4C2(CCN3CC2CC2)C1O5 (configuration not stated) [CAS_213055]
- Ki (Mu-type opioid receptor): 5.2 nM

From BindingDB's records for doi:10.1124/jpet.104.073668 (Temple University, 2005)
